# Entries after “also recorded” stand apart in the source; their conditions may differ.
# Key:
# full-length USP7 = full-length USP7 (Homo sapiens (Human), UniProt Q93009); test: Enzymatic assay to determine IC50 of USP7 inhibitors (Ubiquitin-Rhodamine 110 cleavage); format: biochemical; details: 0.5 nM USP7, 0.5 μM Ubiquitin-Rhodamine 110, 45 min at 37° C.
# In short: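 Full-length USP7 (0.5 nM) in 50 mM HEPES pH 7.5, 150 mM NaCl, 1 mM DTT, 1 mg/ml BSA, 0.05% Tween20 was preincubated 15 min with DTT at room temperature before compound addition.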
# [1] = tested on: CT26 model of colon carcinoma; test: Antitumor efficacy in the subcutaneous CT26 syngeneic model of colon carcinoma
# Procedure: The 7-8-week old BALB/c females (BALB/cAnNCrl, Charles River Laboratories) were injected subcutaneously in the right flank with 5×10^5 CT26 cells. USP7 inhibitors were dosed by oral gavage twice per day at indicated doses starting from 2-5 days after the tumor implantation. […] Tumor volume was estimated by a formula: width×length×depth×π/6.
# CD4+ T cells [2] = test: In vivo and ex vivo immunomodulatory effect in BALB/c mice (splenic CD4+ T cells); format: cell-based
# Procedure: BALB/c mice (10-week-old females, n=3) were administered with Example 77 at 200 mg/kg (BID) by oral gavage for 3 consecutive days. Untreated mice were used as the control group (n=3). Animals were sacrificed 16 hours following the last dosing. The spleens were collected and total CD4^+ lymphocytes were isolated by bead-based negative separation according to the manufacturers manual (EasySep™ Mouse CD4+ T cell Isolation Kit, StemCell; Cat. #19852). The purity of splenic CD4^+ T cells exceeded 95%, as confirmed by flow cytometric analysis following staining with anti-mouse CD3 and CD4 antibodies. Isolated CD4^+ T cells were seeded in triplicates (50 000 cells/well in RPMI full medium) on 96-well U-bottom plate covered with 1 μg/mL anti-CD3 and 1 μg/mL anti-CD28 antibodies (for stimulation and activation of cells). Following one hour preincubation in 37° C. degree, CD4^+ T cells were treated with 2 μM of Example 77, the final concentration of DMSO in wells was 0.03%. After 72 h lymphocytes activation was evaluated by testing viability, cytotoxicity and cytokine release: mTNF-α and mIFN-γ.
# • 1. ATP level in cell lysates (CellTiterGlo Viability Assay, Promega) • 2. Lactate dehydrogenase (LDH) level in cell culture medium (LDH-Glo Cytotoxicity Assay, Promega) • 3. Cell counting (Fluorescence staining, Luna automated cell counter, Logos Biosystems) • 4. mTNF-α in supernatants by ELISA • 5. mIFN-γ in supernatants by ELISA
# CT26 cells = test: Killing assay: splenocytes of tumor-bearing mice co-cultured with CT26 cells; format: cell-based, mouse; details: co-culture with CT26 cells 1:10 and 1:50, 36 h
# Procedure: To investigate the killing capability of T cells the splenocytes were isolated from tumor-bearing mice treated and untreated with different concentrations of Example 77. CT26 cells were seeded and stained with Green Cell Tracker. Stained CT26 cells were co-cultured with splenocytes from experimental animals in two ratios 1:10 and 1:50. After 36 h cells were harvested and analyzed on the flow cytometer.
# mouse CD8+ T cells = test: Cytotoxic effect on mouse CD8+ T cells (splenocytes, flow cytometry); format: cell-based; details: 24 hours of incubation
# Procedure: In these experiments, the mouse splenocytes were seeded into in 24-well plate and after 24 hours of incubation with USP7 inhibitors the T cells viability was analyzed with flow cytometry. […] Mann-Whitney test.
# CD4+ T cells [3] = test: Immunomodulatory effect on isolated, anti-CD3/anti-CD28 activated CD4+ T cells from C57BL/6 mice; format: cell-based
# From the text: (§1) Splenocytes from three C57BL/6 mice donors were isolated separately. Next, specific CD4^+ cells were extracted from all splenocytes with EasySep™ Mouse CD4^+ T cell Isolation Kit by negative selection (StemCell; Cat. #19852). The purity of splenic CD4^+ T cells exceeded 95%, as confirmed by flow cytometric analysis following staining with anti-mouse CD3 and CD4 antibodies. Pure CD4^+ cells were subsequently seeded in RPMI full medium (50 000 cells/well) on 96-well U-bottom plate covered with 1 μg/mL antiCD3 and 1 μg/mL antiCD28 (for stimulation and activation). Then. […] The final concentration of DMSO in wells was 0.03%. After 72 h, lymphocyte activation was evaluated by counting, testing viability (LDH Assay, CellTiter Glo Assay) and cytokine. Statistical significance of observed effects was determined based on mean values calculated from technical replicates for each mouse (n=9; experiment was performed three times). • 1. ATP level in cell lysates (CellTiterGlo Viability Assay. Promega;) • 2. LDH level in cell culture medium • 3. Cell counting (Orange-Acridine staining, Luna automated cell counter, Logos Biosystems) • 4. mTNF-α in supernatants (ELISA) • 5. mIFN-γ in supernatants (ELISA) • 6. Magpix Luminex (T-Cells Panel: GM-CSF, IFN-γ, IL-10 TNF-α)
# [4] = as above; format: cell-based; details: C57BL/6; activated mouse CD4+ T cells, 72 h; read-out: cytotoxicity IC50 (cell viability, CellTiter Glo Assay)
# From the text: as §1
# [5] = 2 μM, 72 h, LDH-Glo cytotoxicity assay
# [6] = 0.5-2.5 μM, 72 h, ELISA / Magpix Luminex
# [7] = 0.5-2.5 μM, 72 h, Magpix Luminex
# Sequence of full-length USP7 (Q93009 whole entry): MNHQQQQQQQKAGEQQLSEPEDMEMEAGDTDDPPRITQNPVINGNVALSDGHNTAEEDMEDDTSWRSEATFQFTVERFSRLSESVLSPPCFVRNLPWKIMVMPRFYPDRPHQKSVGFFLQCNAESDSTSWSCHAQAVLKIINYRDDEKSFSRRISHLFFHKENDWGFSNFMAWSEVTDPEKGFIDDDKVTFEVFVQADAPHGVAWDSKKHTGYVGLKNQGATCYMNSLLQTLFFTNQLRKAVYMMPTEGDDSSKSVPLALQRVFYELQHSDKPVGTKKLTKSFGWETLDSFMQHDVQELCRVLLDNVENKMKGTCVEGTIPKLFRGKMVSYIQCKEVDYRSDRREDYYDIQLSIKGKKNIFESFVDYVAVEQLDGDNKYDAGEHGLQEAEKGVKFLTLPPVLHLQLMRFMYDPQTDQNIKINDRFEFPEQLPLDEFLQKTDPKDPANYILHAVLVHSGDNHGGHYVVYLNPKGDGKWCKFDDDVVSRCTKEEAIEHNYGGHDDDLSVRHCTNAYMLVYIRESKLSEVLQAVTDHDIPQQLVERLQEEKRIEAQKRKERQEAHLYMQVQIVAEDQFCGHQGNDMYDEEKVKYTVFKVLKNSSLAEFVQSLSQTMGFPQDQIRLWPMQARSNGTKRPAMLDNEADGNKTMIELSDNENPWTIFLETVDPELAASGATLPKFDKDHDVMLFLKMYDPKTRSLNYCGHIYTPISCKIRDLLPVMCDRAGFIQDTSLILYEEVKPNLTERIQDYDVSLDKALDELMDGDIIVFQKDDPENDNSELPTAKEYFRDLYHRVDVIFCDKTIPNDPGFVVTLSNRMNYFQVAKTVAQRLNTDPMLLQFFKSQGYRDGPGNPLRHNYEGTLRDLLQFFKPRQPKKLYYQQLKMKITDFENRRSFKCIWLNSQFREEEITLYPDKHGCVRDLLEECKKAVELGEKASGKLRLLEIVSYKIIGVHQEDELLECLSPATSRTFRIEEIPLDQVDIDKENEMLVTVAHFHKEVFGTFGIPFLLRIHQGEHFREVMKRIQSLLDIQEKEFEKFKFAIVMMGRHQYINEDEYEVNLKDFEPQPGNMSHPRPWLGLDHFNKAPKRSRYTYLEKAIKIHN
smiles,measurement,setting,value
"CN[C@H]1CCN(C(=O)c2c(C)cc(C(F)(F)F)nc2-c2ccnc3cc(CN4C(=O)C5C(C4=O)C5(C)C)sc23)C1.Cl.Cl (stereo partly drawn) [Example 77, 6,6-dimethyl-3-((7-(4-methyl-3-((S)-3-(methylamino)pyrrolidine-1-carbonyl)-6-(trifluoromethyl)pyridin-2-yl)thieno[3,2-b]pyridin-2-yl)methyl)-3-azabicyclo[3.1.0]hexane-2,4-dione dihydrochloride]",IC50,full-length USP7,< 500 nM
same,TGI,"[1]; 100 mg/kg PO BID, anti-PD-1 combination experiment",69%
same,increase in survival time vs. anti-PD-1 monotherapy group,"[1]; 100 mg/kg PO BID, log-rank test",26%
same,percent of CD8+ T cells in tumor,"[1]; 100 mg/kg, cytometric analysis",increase
same,interferon-γ production in CD8+ T cells,"[1]; 100 mg/kg, data not shown",enhanced amounts
same,granzyme B production in CD8+ T cells,"[1]; 100 mg/kg, flow cytometry",enhanced amounts
same,antitumor effect after injection of CD8-depleting anti-CD8 antibodies,"[1]; anti-CD8 antibody 100 μg intraperitoneally on days 1, 7 and 14, dihydrochloride",completely abrogated; also recorded: requires CD8+ T cells
same,effect on the therapeutic effect of anti-PD-1 antibody,"[1]; combination with anti-PD-1 antibody, dihydrochloride",potentiated; also recorded: increases the efficiency
same,tumor growth inhibition (TGI),"[1]; dose-dependent, oral gavage BID, day 20 post-inoculation, p=0.048",up to 67%
same,survival time,"[1]; survival analysis, anti-PD-1 combination experiment",29 days
same,pro-inflammatory cytokines release after additional ex vivo treatment of isolated T-cells,"CD4+ T cells [2]; 2 μM ex vivo, 72 h",additionally increases
same,total ATP level (CellTiter Glo Assay),"CD4+ T cells [2]; 2 μM, 72 h",didn't affect
same,CD4+ T cells activation and pro-inflammatory cytokines release: TNF-α and IFN-γ,"CD4+ T cells [2]; 2 μM, 72 h, ELISA",does not affect
same,LDH concentration in the culture medium vs. positive control,CD4+ T cells [2]; [5],≤ 5%
same,cytotoxicity for CD4+ T-cells,CD4+ T cells [2]; [5],not cytotoxic
same,T cells viability,"CD4+ T cells [2]; CD4+ T cells, 2 μM, 72 h",does not affect
same,ex vivo pro-inflammatory cytokine release of activated CD4+ T cells from treated mice vs. control mice,CD4+ T cells [2]; mice dosed 200 mg/kg BID by oral gavage for 3 days,much more
same,killing capability of splenocytes from treated CT26-bearing mice vs. control mice,CT26 cells,enhanced killing capability
same,cytotoxicity to CD8 T cells,mouse CD8+ T cells,limited
same,IFNg level in supernatants,CD4+ T cells [3]; [6],Statistically significant increase
same,TNFa level in supernatants,CD4+ T cells [3]; [6],not affected
same,GM-CSF level in supernatants,CD4+ T cells [3]; [7],Statistically significant increase
same,IL-10 level in supernatants,CD4+ T cells [3]; [7],not affected
same,times less cytotoxic than the reference RAPT compound,"CD4+ T cells [3]; CellTiter Glo Assay, head to head",10
same,"viability by cell counting (Luna cell counter, trypan blue)",CD4+ T cells [3]; after 72 h of incubation,comparable to that obtained with CellTiter Glo
same,CD4+ T cells activation and pro-inflammatory cytokine release,CD4+ T cells [3]; low concentration (0.5-2.5 μM),does not disturb
same,IC50 at 72 h,[4],~9 µM
